{
  "source": "ChEMBL document CHEMBL1149204",
  "about": "“A new lead compound for abscisic acid biosynthesis inhibitors targeting 9-cis-epoxycarotenoid dioxygenase” (Bioorg Med Chem Lett, 2004)",
  "key": {"[1]": {"experiment": "Inhibitory activity was determined against 9-cis-epoxycarotenoid dioxygenase (NCED) expressed in Escherichia coli in presence of 9''-cis-neo-xanthin"}, "[2]": {"system": "Spinacia oleracea", "experiment": "Effect of compound at 100 uM concentration on ABA accumulation in spinachleaf slices determined as fresh weight of leaves (Experiment 1)", "assay_type": "functional"}, "[3]": {"system": "Spinacia oleracea", "experiment": "Effect of compound at 100 uM concentration on ABA accumulation in spinachleaf slices determined as fresh weight of leaves (Experiment 2)", "assay_type": "functional"}, "[4]": {"system": "Spinacia oleracea", "experiment": "Effect of compound at 100 uM concentration on ABA accumulation in spinachleaf slices determined as fresh weight of leaves (Experiment 3)", "assay_type": "functional"}, "[5]": {"system": "Spinacia oleracea", "experiment": "Effect of compound at 0.4 M concentration on ABA accumulation in spinachleaf slices determined as fresh weight of leaves (Experiment 1)", "assay_type": "functional"}, "[6]": {"system": "Spinacia oleracea", "experiment": "Effect of compound at 0.4 M concentration on ABA accumulation in spinachleaf slices determined as fresh weight of leaves (Experiment 2)", "assay_type": "functional"}, "[7]": {"system": "Spinacia oleracea", "experiment": "Effect of compound at 0.4 M concentration on ABA accumulation in spinachleaf slices determined as fresh weight of leaves (Experiment 3)", "assay_type": "functional"}},
  "data": [
    {"smiles": "Oc1ccc(CCNCc2ccccc2O)cc1", "values": [
      {"measurement": "IC50", "setting": "[1]", "result": 160, "unit": "µM"}
    ]},
    {"smiles": "COC(=O)CN(C/C=C/c1ccc(OC)c(OC)c1)Cc1ccc(F)cc1", "values": [
      {"measurement": "IC50", "setting": "[1]", "result": 55, "unit": "µM"},
      {"measurement": "ABA content per fresh weight", "setting": "[2]", "result": 14, "unit": "ng/g"},
      {"measurement": "ABA content per fresh weight", "setting": "[3]", "result": 82.8, "unit": "ng/g"},
      {"measurement": "ABA content per fresh weight", "setting": "[4]", "result": 65.6, "unit": "ng/g"}
    ]},
    {"smiles": "COc1ccc(CCN(C)Cc2ccc(OC)c(OC)c2)cc1", "values": [
      {"measurement": "IC50", "setting": "[1]", "result": 87, "unit": "µM"}
    ]},
    {"smiles": "COc1ccc(NC/C=C/c2ccc(OC)c(OC)c2)cc1", "values": [
      {"measurement": "IC50", "setting": "[1]", "result": 145, "unit": "µM"},
      {"measurement": "ABA content per fresh weight", "setting": "[2]", "result": 26.1, "unit": "ng/g"},
      {"measurement": "ABA content per fresh weight", "setting": "[3]", "result": 168.7, "unit": "ng/g"},
      {"measurement": "ABA content per fresh weight", "setting": "[4]", "result": 137.1, "unit": "ng/g"}
    ]},
    {"smiles": "OC[C@@H](O)[C@@H](O)[C@H](O)[C@H](O)CO", "note": "[MANNITOL]", "values": [
      {"measurement": "Fresh weight", "setting": "[5]", "result": 22.7, "unit": "ng/g"},
      {"measurement": "Fresh weight", "setting": "[6]", "result": 178.4, "unit": "ng/g"},
      {"measurement": "Fresh weight", "setting": "[7]", "result": 134.9, "unit": "ng/g"}
    ]},
    {"smiles": "CC(Cc1ccc(O)c(O)c1)C(C)Cc1ccc(O)c(O)c1", "note": "(configuration not stated) [NORDIHYDROGUAIARETIC ACID]", "values": [
      {"measurement": "IC50", "setting": "[1]", "result": 183, "unit": "µM"},
      {"measurement": "ABA content per fresh weight", "setting": "[2]", "result": 20.5, "unit": "ng/g"},
      {"measurement": "ABA content per fresh weight", "setting": "[3]", "result": 165.3, "unit": "ng/g"},
      {"measurement": "ABA content per fresh weight", "setting": "[4]", "result": 128.5, "unit": "ng/g"}
    ]}
  ]
}
